The text below walks through data of BindingDB's records for doi:10.1021/acs.jmedchem.5b00659 (Taipei Medical University, 2015).

Each structure is given as a SMILES string.

The assay concerns the target Signal transducer and activator of transcription 3 (Homo sapiens, UniProt P40763). As to the kind of experiment: Inhibition of STAT3 tyrosine phosphorylation in human A549 cells by sandwich ELISA method.

Sequence of Signal transducer and activator of transcription 3 (P40763 whole entry): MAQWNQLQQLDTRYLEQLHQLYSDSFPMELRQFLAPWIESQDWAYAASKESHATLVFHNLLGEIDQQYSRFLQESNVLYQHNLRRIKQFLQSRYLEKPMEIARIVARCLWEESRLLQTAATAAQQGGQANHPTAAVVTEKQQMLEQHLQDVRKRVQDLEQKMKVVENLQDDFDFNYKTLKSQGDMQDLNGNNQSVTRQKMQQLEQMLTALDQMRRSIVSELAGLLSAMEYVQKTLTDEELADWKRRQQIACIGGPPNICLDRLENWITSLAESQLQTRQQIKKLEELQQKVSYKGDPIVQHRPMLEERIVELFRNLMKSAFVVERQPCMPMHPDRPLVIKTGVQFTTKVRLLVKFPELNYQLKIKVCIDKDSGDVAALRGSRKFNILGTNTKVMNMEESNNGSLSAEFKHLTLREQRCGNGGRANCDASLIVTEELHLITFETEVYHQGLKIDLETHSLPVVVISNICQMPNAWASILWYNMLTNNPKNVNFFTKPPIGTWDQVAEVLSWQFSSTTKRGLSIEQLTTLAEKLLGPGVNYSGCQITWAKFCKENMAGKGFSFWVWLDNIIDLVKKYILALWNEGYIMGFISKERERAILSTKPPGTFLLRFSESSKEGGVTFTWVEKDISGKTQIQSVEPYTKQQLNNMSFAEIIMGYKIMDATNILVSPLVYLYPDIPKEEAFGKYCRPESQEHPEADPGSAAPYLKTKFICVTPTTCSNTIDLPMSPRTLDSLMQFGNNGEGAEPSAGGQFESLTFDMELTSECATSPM

Consider `COc1ccc(S(=O)(=O)Nc2ccccc2-c2ccc(F)c(F)c2)cc1`, for which the concentration for half-maximal inhibition (IC50) (as a rule, the concentration at which inhibition is half-maximal) stood at 2750 nM.
